Consider two compounds from US5416076A, “S-adenosyl methionine decarboxylase inhibitors” (Merrell Dow Pharmaceuticals Inc., priority 1989, dated 1995).

The test concerns Trypanosoma brucei. In words: Treatment of Trypanosoma Brucei-infected mice. The class given is in vivo, T. brucei (EATRO 110) in mice (CD-1, males). The note with it: for Mice cured/Total: cured = surviving 30 days after all controls dead. An excerpt:
Illustrative of the effects of a compound of this invention (i.e., cis-5'-deoxy-5'-(4-amino-2-butenyl )methylaminoadenosine, identified below as MDL Compound) for the treatment of African Trypanosomiasis is an assay using Trypanosoma brucei-infected mice, as follows:
(a) includes those animals that died.
(b) MDL Compound was given intraperitoneally three times per day (8:30
a.m., 12:30 p.m. and 4:30 p.m,) for three consecutive days.
(c) Eflornithine was given in drinking water for three days.
Mice (20-22 g, CD-1, males) were infected with 2.5×10^5 T. brucei (EATRO 110) by intraperitoneal injection. Drug treatment commenced 24 h after infection. Mice surviving for 30 days after all controls were dead were considered cured. This method for drug testing is that of Bacchi et al. (1980) Science 210: 332-334, and successfully predicted the utility of eflornithine in human trypanosomiasis.

For the compound `NCCCC(N)(C(=O)O)C(F)F` (centres unmarked) [Eflornithine, reference compound], the “Mice cured/Total” value (2% in drinking water for three days) is 3/5.

For the compound `CN(C/C=C\CN)C[C@H]1O[C@@H](n2cnc3c(N)ncnc32)[C@H](O)[C@@H]1O` [MDL Compound, CIS-5'-DEOXY-5'(4-AMINO-2-BUTENYL)METHYLAMINOADENOSINE], the “Mice cured/Total” value is, setting by setting: (dose 10 (unit not given), intraperitoneally three times per day for three consecutive days) 2/5; (dose 20 (unit not given), intraperitoneally three times per day for three consecutive days) 3/5; (dose 50 (unit not given), intraperitoneally three times per day for three consecutive days) 4/5. Also, under “dose 50 (unit not given), intraperitoneally three times per day for three consecutive days, per animal”, the “Days of Survival (includes those animals that died)” value was found to be 12 days.
